The values below come from US20240376114A1, “NUCLEAR TRANSPORT MODULATORS AND USES THEREOF” (Karyopharm Therapeutics Inc., priority 2011, published 2024).

SMILES strings stand for the structures.

This data set can be described thus: CellTiter 96 AQueous One Solution (MTS) cell proliferation assay. Type of data set: cell-based. To be noted: human, MM.1S multiple myeloma cells; MM.1S cells, 72 h treatment; read-out: Cytotoxicity [EC50]. From the text:
The CellTiter 96® AQueous One Solution cell proliferation assay (Promega) was used on MM.1S multiple myeloma cell line to study the cytotoxic and cytostatic properties of the compounds. The assay is based on the cleavage of the tetrazolium salt, MTS, in the presence of an electron-coupling reagent PES (phenazine ethosulfate). The MTS tetrazolium compound is bioreduced by cells into a colored formazan product that is soluble in tissue culture medium. This conversion is presumably accomplished by NADPH or NADH produced by dehydrogenase enzymes in metabolically active cells. Assays are performed by adding a small amount of the CellTiter 96® AQueous One solution reagent directly to culture wells, incubating for 1-4 hours and then recording the absorbance at 490 nm with a 96-well plate reader.
The cells were seeded at 5×10^3 to 1.5×10^4 cells (depending on cell type) in each well of a 96-well plate in 100 μL of fresh culture medium and adherent cells were allowed to attach overnight. The stock solutions of the compounds were diluted in cell culture medium to obtain eight concentrations of each drug, ranging from 1 nM to 30 μM and DMSO at less than 1% v/v was used as a negative control. The resulting drug solutions were transferred onto the cells. After 72 h of treatment, 20 μl of CellTiter 96® AQueous reagent was added into each well of the 96-well assay plates and the plate was incubated at 37° C. for 1-4 hours in a humidified, 5% CO2 atmosphere. Then the absorbance of each well was recorded at 490 nm using a 96-well plate reader. In most cases, the assay was performed in triplicate and the results were presented as half maximal inhibitory concentration (IC50). Optical density versus compound concentration was plotted and analyzed using non-linear regression equations (IDBS XLfit) and the IC50 for each compound was calculated.
One may read the EC50 as the midpoint of the concentration-response curve. For the compound `O=C(/C=C\n1cnc(-c2cc(C(F)(F)F)cc(C(F)(F)F)c2)n1)NC1CCc2ncccc21` (stereo not shown) [Compound 28, (Z)-3-(3-(3,5-bis(trifluoromethyl)phenyl)-1H-1,2,4-triazol-1-yl)-N-(6,7-dihydro-5H-cyclopenta[b]pyridin-5-yl)acrylamide], the half-maximal effective concentration (EC50) at 72 h was in the range of 1 to 10 µM.
To `O=C(/C=C\n1cnc(-c2cc(C(F)(F)F)cc(C(F)(F)F)c2)n1)N1CC(O)C1` [Compound 53, (Z)-3-(3-(3,5-bis(trifluoromethyl)phenyl)-1H-1,2,4-triazol-1-yl)-1-(3-hydroxyazetidine-1-yl)prop-2-en-1-one] belongs less than 1 µM.
Regarding `NC1C2CN(C(=O)/C=C\n3cnc(-c4cc(C(F)(F)F)cc(C(F)(F)F)c4)n3)CC12` (stereo not shown) [Compound 57, (Z)-1-(6-amino-3-azabicyclo[3.1.0]hexan-3-yl)-3-(3-(3,5-bis(trifluoromethyl)phenyl)-1H-1,2,4-triazol-1-yl)prop-2-en-1-one], the 50% effective concentration (EC50) at 72 h is less than 1 µM.
As for `O=C1CC(c2cc(C(F)(F)F)cc(C(F)(F)F)c2)CN1/C=C\C(=O)N1CC(F)(F)C1` (stereo not shown) [Compound 64, (Z)-4-(3,5-bis(trifluoromethyl)phenyl)-1-(3-(3,3-difluoroazetidin-1-yl)-3-oxoprop-1-enyl)pyrrolidin-2-one], the figure is more than 10 µM; as for `CN1CCCC(CNC(=O)/C=C\n2cnc(-c3cc(C(F)(F)F)cc(C(F)(F)F)c3)n2)C1` (stereo not shown) [Compound 27, (Z)-3-(3-(3,5-bis(trifluoromethyl)phenyl)-1H-1,2,4-triazol-1-yl)-N-((1-methylpiperidin-3-yl)methyl)acrylamide], less than 1 µM; as for `O=C(/C=C\n1cnc(-c2cc(C(F)(F)F)cc(C(F)(F)F)c2)n1)N1CC(c2ccccn2)C1` [Compound 24, (Z)-3-(3-(3,5-bis(trifluoromethyl)phenyl)-1H-1,2,4-triazol-1-yl)-1-(3-(pyridin-2-yl)azetidin-1-yl)prop-2-en-1-one], less than 1 µM.
To `O=C(O)C1CN(C(=O)/C=C\n2cnc(-c3cc(C(F)(F)F)cc(C(F)(F)F)c3)n2)C1` [Compound 55, (Z)-1-(3-(3-(3,5-bis(trifluoromethyl)phenyl)-1H-1,2,4-triazol-1-yl)acryloyl)azetidine-3-carboxylic acid] belongs 1 to 10 µM; to `O=C(/C=C\c1n[nH]c(-c2cc(C(F)(F)F)cc(C(F)(F)F)c2)n1)N1CC(F)(F)C1` [Compound 12, (Z)-3-(5-(3,5-bis(trifluoromethyl)phenyl)-4H-1,2,4-triazol-3-yl)-1-(3,3-difluoroazetidin-1-yl)prop-2-en-1-one], 1 to 10 µM.
Regarding `O=C(/C=C\n1cnc(-c2cc(O)cc(C(F)(F)F)c2)n1)N1CC(F)(F)C1` [Example 3, (Z)-1-(3,3-difluoroazetidin-1-yl)-3-(3-(3-hydroxy-5-(trifluoromethyl)phenyl)-1H-1,2,4-triazol-1-yl)prop-2-en-1-one], the EC50 at 72 h is less than 1 µM.
In the case of `O=C(/C=C\n1cnc(-c2cc(C(F)(F)F)cc(C(F)(F)F)c2)n1)N1CCC2(CNC2)C1` [Compound 58, (Z)-3-(3-(3,5-bis(trifluoromethyl)phenyl)-1H-1,2,4-triazol-1-yl)-1-(2,6-diazaspiro[3.4]octan-6-yl)prop-2-en-1-one 2,2,2-trifluoroacetate], the EC50 at 72 h was less than 1 µM.
Consider `Cc1ncc(CNC(=O)/C=C\n2cnc(-c3cc(C(F)(F)F)cc(C(F)(F)F)c3)n2)c(C)n1` [Compound 31, (Z)-3-(3-(3,5-bis(trifluoromethyl)phenyl)-1H-1,2,4-triazol-1-yl)-N-((2,4-dimethylpyrimidin-5-yl)methyl)acrylamide], for which the EC50 at 72 h is less than 1 µM.
As for `N#CC1CN(C(=O)/C=C\n2cnc(-c3cc(C(F)(F)F)cc(C(F)(F)F)c3)n2)C1` [Compound 54, (Z)-1-(3-(3-(3,5-bis(trifluoromethyl)phenyl)-1H-1,2,4-triazol-1-yl)acryloyl)azetidine-3-carbonitrile], the figure is less than 1 µM.
As for `CN1CCC(CNC(=O)/C=C\n2cnc(-c3cc(C(F)(F)F)cc(C(F)(F)F)c3)n2)C1` (stereo not shown) [Compound 30, (Z)-3-(3-(3,5-bis(trifluoromethyl)phenyl)-1H-1,2,4-triazol-1-yl)-N-((1-methylpyrrolidin-3-yl)methyl)acrylamide], the figure is less than 1 µM; as for `CN(C)CC1(F)CN(C(=O)/C=C\n2cnc(-c3cc(C(F)(F)F)cc(C(F)(F)F)c3)n2)C1` [Compound 63, (Z)-3-(3-(3,5-bis(trifluoromethyl)phenyl)-1H-1,2,4-triazol-1-yl)-1-(3-((dimethylamino)methyl)-3-fluoroazetidin-1-yl)prop-2-en-1-one], less than 1 µM.
As for `CN1CCC(CNC(=O)/C=C\n2cnc(-c3cc(C(F)(F)F)cc(C(F)(F)F)c3)n2)CC1` [Compound 26, (Z)-3-(3-(3,5-bis(trifluoromethyl)phenyl)-1H-1,2,4-triazol-1-yl)-N-((1-methylpiperidin-4-yl)methyl)acrylamide], the figure is less than 1 µM; as for `O=C(/C=C\n1cnc(-c2cc(C(F)(F)F)c(Cl)c(C(F)(F)F)c2)n1)N1CC(F)(F)C1` [Compound 59, (Z)-3-(3-(4-chloro-3,5-bis(trifluoromethyl)phenyl)-1H-1,2,4-triazol-1-yl)-1-(3,3-difluoroazetidin-1-yl)prop-2-en-1-one], less than 1 µM; as for `O=C(/C=C\n1cnc(-c2cc(C(F)(F)F)cc(C(F)(F)F)c2)n1)N1CC2(CNC2)C1` [Compound 52, (Z)-3-(3-(3,5-bis(trifluoromethyl)phenyl)-1H-1,2,4-triazol-1-yl)-1-(2,6-diazaspiro[3.3]heptan-2-yl)prop-2-en-1-one 2,2,2-trifluoroacetate], less than 1 µM.
As for `COC(=O)C1(F)CN(C(=O)/C=C\n2cnc(-c3cc(C(F)(F)F)cc(C(F)(F)F)c3)n2)C1` [Compound 61, (Z)-methyl 1-(3-(3-(3,5-bis(trifluoromethyl)phenyl)-1H-1,2,4-triazol-1-yl)acryloyl)-3-fluoroazetidine-3-carboxylate], the EC50 at 72 h was less than 1 µM.
To `O=C(/C=C\n1cnc(-c2cc(C(F)(F)F)cc(C(F)(F)F)c2)n1)N1CCC(F)(F)C1` [Compound 20, (Z)-3-(3-(3,5-bis(trifluoromethyl)phenyl)-1H-1,2,4-triazol-1-yl)-1-(3,3-difluoropyrrolidin-1-yl)prop-2-en-1-one] belongs less than 1 µM.
To `O=C(/C=C\n1cnc(-c2cc(C(F)(F)F)nc(C(F)(F)F)c2)n1)N1CC(F)(F)C1` [Example 9, (Z)-3-(3-(2,6-bis(trifluoromethyl)pyridin-4-yl)-1H-1,2,4-triazol-1-yl)-1-(3,3-difluoroazetidin-1-yl)prop-2-en-1-one] belongs less than 1 µM; to `CN(Cc1cncnc1)C(=O)/C=C\n1cnc(-c2cc(C(F)(F)F)cc(C(F)(F)F)c2)n1` [Compound 17, (Z)-3-(3-(3,5-bis(trifluoromethyl)phenyl)-1H-1,2,4-triazol-1-yl)-N-methyl-N-(pyrimidin-5-ylmethyl)acrylamide], 1 to 10 µM.
To `O=C(/C=C\n1cnc(-c2cc(C(F)(F)F)cc(C(F)(F)F)c2)n1)NCc1cncnc1` [Compound 14, (Z)-3-(3-(3,5-bis(trifluoromethyl)phenyl)-1H-1,2,4-triazol-1-yl)-N-(pyrimidin-5-ylmethyl)acrylamide] belongs less than 1 µM; to `Cc1ncc(CNC(=O)/C=C\n2cnc(-c3cc(C(F)(F)F)cc(C(F)(F)F)c3)n2)cn1` [Compound 13, (Z)-3-(3-(3,5-bis(trifluoromethyl)phenyl)-1H-1,2,4-triazol-1-yl)-N-((2-methylpyrimidin-5-yl)methyl)acrylamide], 1 to 10 µM; to `CC(NC(=O)/C=C\n1cnc(-c2cc(C(F)(F)F)cc(C(F)(F)F)c2)n1)c1cnccn1` (stereo not shown) [Compound 29, (Z)-3-(3-(3,5-bis(trifluoromethyl)phenyl)-1H-1,2,4-triazol-1-yl)-N-(1-(pyrazin-2-yl)ethyl)acrylamide], 1 to 10 µM.
As for `[2H]/C(=C/n1nc(-c2cc(C(F)(F)F)cc(C(F)(F)F)c2)nc1[2H])C(=O)N1CC(F)(F)C1` [Compound 40, D2-(Z)-3-(3-(3,5-bis(trifluoromethyl)phenyl)-1H-1,2,4-triazol-1-yl)-1-(3,3-difluoroazetidin-1-yl)prop-2-en-1-one], the concentration for a half-maximal effect (EC50) at 72 h is less than 1 µM.
To `O=C(/C=C\n1cnc(-c2cc(C(F)(F)F)cc(C(F)(F)F)c2)n1)NCC1CCCNC1` (stereo not shown) [Compound 19, (Z)-3-(3-(3,5-bis(trifluoromethyl)phenyl)-1H-1,2,4-triazol-1-yl)-N-(piperidin-3-ylmethyl)acrylamide] belongs 1 to 10 µM; to `O=C(/C=C\n1cnc(-c2cc(C(F)(F)F)cc(C(F)(F)F)c2)n1)N1CC(F)(C(=O)O)C1` [Compound 62, (Z)-1-(3-(3-(3,5-bis(trifluoromethyl)phenyl)-1H-1,2,4-triazol-1-yl)acryloyl)-3-fluoroazetidine-3-carboxylic acid], 1 to 10 µM; to `CN(Cc1cnco1)C(=O)/C=C\n1cnc(-c2cc(C(F)(F)F)cc(C(F)(F)F)c2)n1` [Compound 22, (Z)-3-(3-(3,5-bis(trifluoromethyl)phenyl)-1H-1,2,4-triazol-1-yl)-N-methyl-N-(oxazol-5-ylmethyl)acrylamide], 1 to 10 µM.
